Where “and” joins values, the source holds several entries; their conditions need not be identical. Identical values can stand only once. Values belong to the molecule of their own block, whether it stands above or below them.
Tested on: 349418-098-R-PDC complex spheroid growth
Experiment: Anticancer human tumor 349418-098-R-PDC patient-derived lung adenocarcinoma cell line growth inhibition [AhR]
Conditions: for viability, T/C: stronger effect = lower value; for IC50: curve of compound
From the text: Multicellular complex tumor spheroid response to aryl hydrocarbon receptor antagonists in combination with a variety of drugs and investigational agents in selected tumor cell lines
The current study was undertaken to assess response to aryl hydrocarbon receptor antagonists in combination with standard-of-care drugs and investigational agents in solid tumor complex spheroid models. Complex spheroids include a stromal component modeled by human endothelial cells (HUVEC) and fibroblasts modeled by human mesenchymal stem cells (MSCs). The concentration ranges selected for each drug and investigational agent were based upon clinically achievable concentrations if the clinical Cmax of the agent was known.
Compounds. The drugs and investigational agents: BAY 2416964 (NSC825713), GNF351 (NSC835774), CH-223191 (NSC835775), CPI-455 (NSC825282), aza-TdCyd (NSC777586), decitabine (NSC127716), belinostat (NSC758774), entinostat (NSC756642), pevonedistat (NSC761192), tazemetostat (NSC777109), talazoparib (NSC765396), olaparib (NSC753686), selinexor (NSC780203), nedisertib (M3814, NSC802822), bortezomib (NSC756655), venetoclax (NSC766270), doxorubicin (NSC123127), elimusertib (BAY189344, NSC800525), ceralasertib (AZD6738, NSC777638), TAK-243 (NSC785004), alisertib (NSC759677), etoposide (NSC141540), topotecan (NSC609699), eribulin (NSC707389), gemcitabine (NSC613327), carboplatin (NSC241240), cisplatin (NSC119875), and SN-38 (NSC673596) were obtained from the National Cancer Institute (NCI) Developmental Therapeutics Program Chemical Repository (32). The FDA-approved anticancer drug set is available from the Developmental Therapeutics Program at https://dtp.cancer.gov/organization/dscb/obtaining/available plates.htm. […] The stock solutions were prepared in dimethyl sulfoxide (DMSO, Sigma-Aldrich, St. Louis, MO, cat. D2650), except for the platinum compounds which were prepared in saline (Quality Biological, Gaithersburg, MD, cat. 114-055-101), at 800-fold the tested concentration and stored at -70 degrees C prior to their use. All drugs and investigational agents were tested over a range starting from a high concentration at or near the clinical Cmax and decreasing in half-log increments. If the clinical Cmax for an agent had not been determined, the highest concentration tested was 10 microM (Table 1).
Cell Culture. All cells were maintained in an incubator at 37 degrees C and 5% CO2 with 95% humidity. The PDC lines were cultured according to standard operating procedures established by the NCI PDMR (https://pdmr.cancer.gov). Briefly, all PDCs were thawed and cultured in Matrigel-coated flasks prepared with a working solution of 1X Ham's F-12 nutrient mix, without supplementation (Invitrogen, Waltham, MA, cat. 11765054), 100 U/mL penicillin-streptomycin (Invitrogen, cat. 15140122), and 2.5% Matrigel (Corning Inc., Corning, NY, cat. 354248) for the first three passages. All PDCs were cultured in complete DMEM/F-12 media containing advanced DMEM/F-12 (Invitrogen, cat. 12634028), 4.9% defined fetal bovine serum, heat inactivated (HyClone Laboratories Inc., Logan, UT, cat. SH30070.03HI), 389 ng/mL hydrocortisone (Sigma-Aldrich, cat. H4001), 9.7 ng/mL human EGF recombinant protein (Invitrogen, cat. PHG0313), 23.4 microg/mL adenine (Sigma-Aldrich, cat. A2786), 97.3 U/mL penicillin-streptomycin (Invitrogen, cat. 15140122), 1.9 mM L-glutamine (Invitrogen, cat. 25030081), and 9.7 microM Y-27632 dihydrochloride (Tocris Bioscience, Bristol, United Kingdom, cat. 1254). The PDCs were cultured in complete DMEM/F12 media without 10 microM Y-27632 dihydrochloride for at least two passages prior to the screen. The established cell lines NCI-H1341 and […] were cultured in DMEM/F-12, HEPES (Invitrogen, cat. 11330032), 5% defined fetal bovine serum (HyClone Laboratories Inc., cat. SH30070.03), ITS premix universal culture supplement [insulin (5 microg/mL), transferrin (5 microg/mL), and selenious acid (5 ng/mL)] […]
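Note: spheroids exposed to agents for seven days before luminescence viability read.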
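Throughout, for viability, T/C: spheroids also contain HUVEC endothelial cells and human MSC stroma.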

Compound: CC(C)c1c(-c2ccccc2)nc2c(C#N)c[nH]n2c1=O
- viability, T/C (compound 0.0316 µM): 112% and 92.6% and 89.1%
- viability, T/C (compound 0.1 µM): 106% and 83.2% and 76.1%
- viability, T/C (compound 0.316 µM): 100% and 78.1% and 72%
- viability, T/C (compound 1 µM): 103% and 77.8% and 82.3%
- viability, T/C (compound 3.16 µM): 108% and 86.8% and 85.3%
- viability, T/C (compound 10 µM): 91.6% and 86.8% and 79.7%
- IC50: > 10000 nM

Compound: CC1COCCN1c1cc(-c2ccnn2C)c2ccnc(-c3ccn[nH]3)c2n1 (configuration not stated)
- viability, T/C (compound 0.00316 µM): 107% and 93.3% and 81%
- viability, T/C (compound 0.01 µM): 106% and 116% and 95.6%
- viability, T/C (compound 0.0316 µM): 96.8% and 76.4% and 101%
- viability, T/C (compound 0.1 µM): 64% and 45.4% and 42.6%
- viability, T/C (compound 0.316 µM): 18.7% and 15.7% and 14.7%
- viability, T/C (compound 1 µM): 7.38% and 10.8% and 9.29%
- IC50: 142 nM and 80.8 nM and 84.4 nM

Compound: CC1COCCN1c1cc(C2(S(C)(=N)=O)CC2)nc(-c2ccnc3[nH]ccc23)n1 (configuration not stated)
- viability, T/C (compound 0.0316 µM): 101% and 113% and 96.1%
- viability, T/C (compound 0.1 µM): 102% and 81.9% and 78.6%
- viability, T/C (compound 0.316 µM): 102% and 125% and 74.4%
- viability, T/C (compound 1 µM): 100% and 62.9% and 65.1%
- viability, T/C (compound 3.16 µM): 73% and 40.4% and 28.4%
- viability, T/C (compound 10 µM): 16.1% and 13.5% and 12.1%
- IC50: 5040 nM and 1510 nM and 1460 nM

Compound: CCN(c1cc(-c2ccc(CN3CCOCC3)cc2)cc(C(=O)NCc2c(C)cc(C)[nH]c2=O)c1C)C1CCOCC1
- viability, T/C (compound 0.00949 µM): 111% and 107% and 122%
- viability, T/C (compound 0.03 µM): 109% and 98.9% and 71.2%
- viability, T/C (compound 0.0949 µM): 105% and 81.2% and 91.1%
- viability, T/C (compound 0.3 µM): 108% and 64.7% and 101%
- viability, T/C (compound 0.949 µM): 99.1% and 66.3% and 69.3%
- viability, T/C (compound 3 µM): 94% and 69.9% and 88.5%
- IC50: > 3000 nM

Compound: CC[C@@]1(O)C(=O)OCc2c1cc1n(c2=O)Cc2cc3c(CN(C)C)c(O)ccc3nc2-1
- viability, T/C (compound 0.000316 µM): 94.4% and 113% and 119%
- viability, T/C (compound 0.001 µM): 97.3% and 89.4% and 89.3%
- viability, T/C (compound 0.00316 µM): 93.6% and 63.5% and 81.3%
- viability, T/C (compound 0.01 µM): 84.2% and 87.1% and 64%
- viability, T/C (compound 0.0316 µM): 43.4% and 42.2% and 21.3%
- viability, T/C (compound 0.1 µM): 15.3% and 21.5% and 13.5%
- IC50: 26.2 nM and 25.8 nM and 12.9 nM

Compound: COc1cc(C2c3cc4c(cc3C(OC3OC5COC(C)OC5C(O)C3O)C3COC(=O)C23)OCO4)cc(OC)c1O (configuration not stated)
- viability, T/C (compound 0.0316 µM): 99.4% and 112% and 89.4%
- viability, T/C (compound 0.1 µM): 99.9% and 91.1% and 91.7%
- viability, T/C (compound 0.316 µM): 64.6% and 71% and 38.2%
- viability, T/C (compound 1 µM): 22.5% and 31.2% and 21.6%
- viability, T/C (compound 3.16 µM): 11.2% and 15.4% and 15.3%
- viability, T/C (compound 10 µM): 5.4% and 11.7% and 12.5%
- IC50: 479 nM and 566 nM and 244 nM

Compound: COc1ccc([C@@H](O)c2cc(-c3ncnc4cc(N5CCOCC5)ccc34)c(F)cc2Cl)nn1
- viability, T/C (compound 0.0316 µM): 97.4% and 104% and 117%
- viability, T/C (compound 0.1 µM): 112% and 77.3% and 98.6%
- viability, T/C (compound 0.316 µM): 101% and 83.1% and 51.5%
- viability, T/C (compound 1 µM): 84.5% and 66.4% and 65.3%
- viability, T/C (compound 3.16 µM): 57.2% and 33.5% and 38.6%
- viability, T/C (compound 10 µM): 16.7% and 11.3% and 12.6%
- IC50: 3790 nM and 1770 nM and 1160 nM

More lines, main results first:

- IC50: 1.02 nM and < 0.949 nM
Compound: CC(C)CC(NC(=O)C(Cc1ccccc1)NC(=O)c1cnccn1)B(O)O (configuration not stated)
- viability, T/C (compound 0.000949 µM): 52.6% and 44.3% and 19.1%
- viability, T/C (compound 0.003 µM): 10.6% and 12.6% and 7.27%
- viability, T/C (compound 0.00949 µM): 1.45% and 2.68% and 2.76%
- viability, T/C (compound 0.03 µM): 0.95% and 1.46% and 2.12%
- viability, T/C (compound 0.0949 µM): 0.72% and 2.31% and 2.54%
- viability, T/C (compound 0.3 µM): 0.73% and 2.25% and 1.49%

- IC50: > 10000 nM and 7500 nM and 6060 nM
Compound: CC1(C)CCC(CN2CCN(c3ccc(C(=O)NS(=O)(=O)c4ccc(NCC5CCOCC5)c([N+](=O)[O-])c4)c(Oc4cnc5[nH]ccc5c4)c3)CC2)=C(c2ccc(Cl)cc2)C1
- viability, T/C (compound 0.0316 µM): 97.2% and 117% and 104%
- viability, T/C (compound 0.1 µM): 110% and 106% and 101%
- viability, T/C (compound 0.316 µM): 102% and 92.4% and 105%
- viability, T/C (compound 1 µM): 94.9% and 91.9% and 76.2%
- viability, T/C (compound 3.16 µM): 106% and 100% and 68.8%
- viability, T/C (compound 10 µM): 96.6% and 33.3% and 37.7%

- IC50: 1.58 nM and 3.39 nM and < 0.949 nM
Compound: CCc1c2c(nc3ccc(O)cc13)-c1cc3c(c(=O)n1C2)COC(=O)[C@]3(O)CC
- viability, T/C (compound 0.000949 µM): 55.3% and 67.2% and 40.5%
- viability, T/C (compound 0.003 µM): 43.4% and 54.1% and 42.9%
- viability, T/C (compound 0.00949 µM): 20.6% and 16% and 22.3%
- viability, T/C (compound 0.03 µM): 7.29% and 12% and 8.26%
- viability, T/C (compound 0.0949 µM): 3.4% and 8.26% and 6.22%
- viability, T/C (compound 0.3 µM): 1.91% and 6.96% and 4.74%

- IC50: 184 nM and 52.6 nM and < 31.6 nM
Compound: COc1cc(Nc2ncc3c(n2)-c2ccc(Cl)cc2C(c2c(F)cccc2OC)=NC3)ccc1C(=O)O
- viability, T/C (compound 0.0316 µM): 71.2% and 55.7% and 53.1%
- viability, T/C (compound 0.1 µM): 60.4% and 48.7% and 48.4%
- viability, T/C (compound 0.316 µM): 35.9% and 24.7% and 26.5%
- viability, T/C (compound 1 µM): 47% and 31.1% and 35.9%
- viability, T/C (compound 3.16 µM): 43% and 33.3% and 42.7%
- viability, T/C (compound 10 µM): 37.2% and 35.5% and 37.6%

Reference: PubChem BioAssay AID1918996 (Molecular Pharmacology Branch, DTP, NCI, 2023)
